This is an account of results in PMC7689640, “Analysis of the efficacy of HIV protease inhibitors against SARS-CoV-2′s main protease” (Virology Journal, 2020).

One series concerns the target SARS-CoV-2 M^pro (Severe acute respiratory syndrome coronavirus 2, UniProt P0DTD1). Kind of series: Inhibition profiling in cell culture (dark-to-bright GFP reporter substrate, flow cytometry). To be noted: for Inhibition of SARS-CoV-2 M^pro in cell culture: 200 micromolar concentration of the inhibitors, HEK-293 T cells. The class given is cell-based. In general terms: In flow cytometry, cells or beads pass a laser one at a time.

The test system of series [1] is SARS-CoV-2. Also on record: method as in PMID 32147628. To be noted: in vitro; cited from earlier work.
In the next series the test system is HEK-293 T cells. Kind of series: Cell viability assay (MTT). To be noted: for Tolerability by HEK-293 T cells: high concentrations; for Cytotoxicity: HEK-293 T cells.
The test system of another series is MERS-CoV. To be noted: Calu-3 cells; cited from earlier work.
The conditions of series [2]: patient's serum under antiretroviral treatment; cited from earlier work.
The subject of series [3] is SARS-associated coronavirus. To be noted: combination of lopinavir/ritonavir and ribavirin; cited from earlier work.
In series [4] the test system is SARS-CoV-2. To be noted: Vero E6 cells; cited from earlier work.
[5] abbreviates: HEK-293 T cells co-transfected with CoV-2 M^pro and PR-Sub plasmids, 24 h, GFP fluorescence, triplicate experiments, read-out: IC50.

Where two headings read alike, the source gives them in different places.

The IC50 is the concentration that gives 50% inhibition. With `CC(C)CN(C[C@@H](O)[C@H](Cc1ccccc1)NC(=O)O[C@H]1CO[C@H]2OCC[C@H]21)S(=O)(=O)c1ccc(N)cc1` [Darunavir, darunavir], the IC50 on SARS-CoV-2 M^pro (read-out: IC50) was found to be 36.1 µM. Further, the “Concentration inhibiting SARS-CoV-2 replication” value in the series on SARS-CoV-2 [1] was 300 µM. The “Tolerability by HEK-293 T cells” value in the series with HEK-293 T cells was “well tolerated”.
Regarding `Cc1cccc(C)c1OCC(=O)N[C@@H](Cc1ccccc1)[C@@H](O)C[C@H](Cc1ccccc1)NC(=O)[C@H](C(C)C)N1CCCNC1=O` [Lopinavir, lopinavir], the half-maximal inhibitory concentration (IC50) result on SARS-CoV-2 M^pro was “Indeterminable”; with MERS-CoV, 11.6 µM. This compound also came in with a Cytotoxicity in the series on HEK-293 T cells (concentrations above 50 µM) of 90%.
With `CCC[C@@]1(CCc2ccccc2)CC(O)=C([C@H](CC)c2cccc(NS(=O)(=O)c3ccc(C(F)(F)F)cn3)c2)C(=O)O1` [Tipranavir, tipranavir], the “Inhibition of SARS-CoV-2 M^pro in cell culture” value at SARS-CoV-2 M^pro is reported as “failed to inhibit”. Moreover, the half-maximal inhibitory concentration (IC50) at SARS-CoV-2 M^pro (setting [5]) is above 200 µM.
Regarding `Cc1c(O)cccc1C(=O)N[C@@H](CSc1ccccc1)[C@H](O)CN1C[C@H]2CCCC[C@H]2C[C@H]1C(=O)NC(C)(C)C` [Nelfinavir, nelfinavir], on SARS-CoV-2 M^pro, the IC50 was above 200 µM and the “Inhibition of SARS-CoV-2 M^pro in cell culture” value is reported as “failed to inhibit”.
With `CC(C)(C)NC(=O)[C@@H]1C[C@@H]2CCCC[C@@H]2CN1C[C@@H](O)[C@H](Cc1ccccc1)NC(=O)[C@H](CC(N)=O)NC(=O)c1ccc2ccccc2n1` [Saquinavir, saquinavir], the half-maximal inhibitory concentration (IC50) on SARS-CoV-2 M^pro is 31.4 µM. The “Minimum concentration (Cmin)” value in series [2] was 3800 nM. In addition, the Cytotoxicity with HEK-293 T cells (concentrations above 50 µM) is listed as above 50%.
Take `NC(=O)c1ncn([C@@H]2O[C@H](CO)[C@@H](O)[C@H]2O)n1` [ribavirin]: in series [3], the “Concentration effective against SARS-associated coronavirus” value was 50 µg/mL.
Take `CC(C)c1nc(CN(C)C(=O)N[C@H](C(=O)N[C@@H](Cc2ccccc2)C[C@H](O)[C@H](Cc2ccccc2)NC(=O)OCc2cncs2)C(C)C)cs1` [Ritonavir, ritonavir]: the “Inhibition of viral replication” value in the series on SARS-CoV-2 [4] was “no inhibition of viral replication”. Moreover, the IC50 in the series on MERS-CoV is 24.9 µM. The compound further displayed a Cytotoxicity in the series with HEK-293 T cells (concentrations above 50 µM) above 50%.
On to `COC(=O)N[C@H](C(=O)N[C@@H](Cc1ccccc1)[C@@H](O)CN(Cc1ccc(-c2ccccn2)cc1)NC(=O)[C@@H](NC(=O)OC)C(C)(C)C)C(C)(C)C` [Atazanavir, atazanavir], for which the 50% inhibitory concentration (IC50) at SARS-CoV-2 M^pro (setting [5]) is 60.7 µM. Further, the “Minimum concentration (Cmin)” value in series [2] is below 1000 nM. In the series on HEK-293 T cells (concentration of 200 µM), the Cytotoxicity result is “cytotoxicity was not observed”. In addition, in the series on HEK-293 T cells, the “Tolerability by HEK-293 T cells” value is “well tolerated”.
